For assay [1], the system named is Streptococcus pneumoniae ATCC 6301. As to the kind of experiment: In vitro susceptibility test (MIC). The conditions noted are these: ATCC6301. Type of assay: cell-based. The method, then: Antibacterial activity (Table 2) was determined by in vitro susceptibility tests against Streptococcus pneumoniae ATCC 6301, a macrolide-sensitive strain, using methods known in the microbiological art.

The test system of another assay is gut contraction. The conditions noted are these: conscious dogs, dose 1 mg/kg; cited from earlier work.
In assay [2] the target is T1, motilin receptor (Homo sapiens, UniProt O43193).
T1 construct: expressed in transfected cells
As to the kind of experiment: Motilin receptor activation, calcium-influx assay. Type of assay: cell-based. The source says:
The compounds of formula (I) are agonists of the motilin receptor.

The target of assay [3] is T1, motilin receptor. The conditions noted are these: cell-based and muscle strip contractility assays; cited from earlier work.
Assay [4] addresses T1, motilin receptor. The conditions noted are these: cited from earlier work.
For assay [5], the target named is T1, motilin receptor. As to the kind of experiment: Motilin receptor desensitization, cell-based assay. The method, then:
Compounds were tested for motilin receptor desensitization using the cell-based assay described in Carreras et al., US 2002/0192709 A1 (2002), “Methods for Evaluating Therapeutic Efficacy,” the disclosure of which is incorporated herein by reference.

The mark [6] stands for this setting: Streptococcus pneumoniae ATCC 6301, macrolide-sensitive strain, read-out: MIC.

The structures appear in SMILES notation. Converted amounts (≈) assume the structure as drawn. Read-outs that look alike come from different tables or passages of the source. Where only a bound is given, the exact number is not on record here.

T1 sequence (O43193 whole entry): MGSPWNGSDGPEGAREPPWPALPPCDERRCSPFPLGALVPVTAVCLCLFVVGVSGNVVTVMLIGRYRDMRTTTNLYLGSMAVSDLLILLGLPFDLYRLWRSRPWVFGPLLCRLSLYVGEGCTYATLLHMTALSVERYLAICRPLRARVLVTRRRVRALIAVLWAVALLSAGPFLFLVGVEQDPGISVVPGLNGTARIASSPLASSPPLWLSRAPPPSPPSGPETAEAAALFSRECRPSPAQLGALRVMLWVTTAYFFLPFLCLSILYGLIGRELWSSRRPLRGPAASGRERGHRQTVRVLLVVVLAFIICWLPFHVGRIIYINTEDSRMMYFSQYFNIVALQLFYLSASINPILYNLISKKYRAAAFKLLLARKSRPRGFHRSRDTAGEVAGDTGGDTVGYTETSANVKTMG

For the compound `CCC1OC(=O)C(C)C(OC2CC(C)(OC)C(O)C(C)O2)C(C)C(OC2OC(C)CC(N(C)C)C2O)C(C)(O)CC(C)C(O)C(C)C(O)C1(C)O` [A, (9S)-9-dihydroerythromycin A, reference compound], the MIC in assay [1] (setting [6]) was determined as 0.3 µg/mL (≈ 0.408 µM). Further, the “Activity relative to erythromycin, stimulation of gut contraction” value in the assay with gut contraction was 65%. Besides, the EC50 on motilin receptor [2] worked out at 2500 nM.
Take `CCC1OC(=O)C(C)C(OC2CC(C)(OC)C(O)C(C)O2)C(C)C(OC2OC(C)CC(N(C)C(C)C)C2O)C(C)(O)CC(C)C(O)C(C)C(O)C1(C)O` (centres unmarked) [B]: the EC50 at motilin receptor [2] is 490 nM.
On the same count and under the same terms, as for `COC1(C)CC(OC2C(C)C(=O)OC(CCF)C(C)(O)C(O)C(C)C(O)C(C)CC(C)(O)C(OC3OC(C)CC(N(C)C)C3O)C2C)OC(C)C1O` [C, (9S)-9-dihydro-15-fluoroerythromycin A], the figure is 5000 nM.
`CC[C@H]1OC(=O)[C@H](C)[C@@H](OC2C[C@@](C)(OC)C[C@H](C)O2)[C@H](C)[C@@H](OC2O[C@H](C)C[C@H](N(C)C(C)C)[C@H]2O)[C@@]2(C)CC(C)=C(O2)[C@H](C)C(=O)[C@]1(C)OC` (some centres unmarked) [Compound 7]: the “Motilin receptor desensitization (in words)” value on motilin receptor [3] is “show motilin receptor desensitization”.
Turning to `CCN(C)C1CC(C)OC(OC2C(C)C(OC3CC(C)(OC)C(O)C(C)O3)C(C)C(=O)OC(CCF)C(C)(O)C(O)C(C)C(O)C(C)CC2(C)O)C1O` [D, N-desmethyl-N-ethyl(9S)-9-dihydro-15-fluoroerythromycin A], the EC50 at motilin receptor [2] is 2000 nM.
Regarding `COC1(C)CC(OC2C(C)C(=O)OC(CCF)C(C)(O)C(O)C(C)C(O)C(C)CC(C)(O)C(OC3OC(C)CC(N(C)C(C)C)C3O)C2C)OC(C)C1O` [E, N-desmethyl-N-isopropyl(9S)-9-dihydro-15-fluoroerythromycin A], the 50% effective concentration (EC50) on motilin receptor [2] is 520 nM.
In the case of `CCC1OC(=O)C(C)C(OC2CC(C)(OC)C(O)C(C)O2)C(C)C(OC2OC(C)CC(N(C)C)C2O)C(C)(O)CC(C)C(=O)C(C)C(O)C1(C)O` (centres unmarked) [Erythromycin A, reference compound], the MIC in assay [1] (Streptococcus pneumoniae) was found to be 0.03 µg/mL (≈ 0.0409 µM). Besides, at motilin receptor [4], the “Motilin agonist activity (in words)” value is reported as “motilin agonist activity”.
For the compound `CCCC1OC(=O)C(C)C(OC2CC(C)(OC)C(O)C(C)O2)C(C)C(OC2OC(C)CC(N(C)C)C2O)C(C)(O)CC(C)C(O)C(C)C(O)C1(C)O` [F, (9S)-9-dihydro-15-methylerythromycin A], the MIC in assay [1] (setting [6]) was determined as 1 µg/mL (≈ 1.33 µM). Also, the “Activity following exposure to compound (% of original activity retained)” value at motilin receptor [5] (1 μM compound) and at motilin receptor [5] (10 μM compound) was 100% throughout. At motilin receptor [2], the EC50 was 8600 nM.
Take `CCCC1OC(=O)C(C)C(OC2CC(C)(OC)C(O)C(C)O2)C(C)C(OC2OC(C)CC(N(C)C(C)C)C2O)C(C)(O)CC(C)C(O)C(C)C(O)C1(C)O` [G, N-desmethyl-N-isopropyl-15-methyl-(9S)-9-dihydroerythromycin A]: the MIC in assay [1] (setting [6]) is greater than 100 µg/mL. Also, the “Activity following exposure to compound (% of original activity retained)” value at motilin receptor [5] (1 μM compound) and at motilin receptor [5] (10 μM compound) was 100% in each case. The EC50 on motilin receptor [2] turned out to be 1400 nM.
On to `CCCC1OC(=O)C(C)C(OC2CC(C)(OC)C(O)C(C)O2)C(C)C(OC2OC(C)CC(N(C)C(C)CC)C2O)C(C)(O)CC(C)C(O)C(C)C(O)C1(C)O` [H, N-desmethyl-N-(2-butyl) (9S)-9-dihydro-15-methylerythromycin A], for which, on motilin receptor [2], the EC50 is 3300 nM.
Take `CCC1OC(=O)C(C)C(OC2CC(C)(OC)C(O)C(C)O2)C(C)C(OC2OC(C)CC(N(C)C(C)C)C2O)C(C)(O)CC(C)C(O)C(C)CC1C` [J, N-desmethyl-N-isopropyl-11-deoxy-(9S)-9-dihydroerythromycin B]: the MIC in assay [1] (setting [6]) was greater than 100 µg/mL. In addition, the “Activity following exposure to compound (% of original activity retained)” value at motilin receptor [5] (1 μM compound) and at motilin receptor [5] (10 μM compound) was 88% each time. Moreover, the EC50 at motilin receptor [2] is 160 nM.

By MIC is commonly meant the smallest concentration in the dilution series that meets the test's criterion for growth inhibition. For orientation: EC50 means the midpoint of the concentration-response curve.

The values are drawn from US6946482B2, “Motilide compounds” (Kosan Biosciences, Inc., priority 2002, dated 2005).
